In patent US6372926B1, “17-side chain alkynyl-and 20-oxopregna-derivatives of vitamin D, methods for their production and pharmaceutical compositions thereof” (Research Institute for Medicine and Chemistry, priority 1997, dated 2002):

Experiments:
[1] = target: T1, glutocorticoid receptor (Homo sapiens, UniProt P04150); settings: in contrast to RU 486; literature report; cited from earlier work
T1 sequence (P04150 1-777): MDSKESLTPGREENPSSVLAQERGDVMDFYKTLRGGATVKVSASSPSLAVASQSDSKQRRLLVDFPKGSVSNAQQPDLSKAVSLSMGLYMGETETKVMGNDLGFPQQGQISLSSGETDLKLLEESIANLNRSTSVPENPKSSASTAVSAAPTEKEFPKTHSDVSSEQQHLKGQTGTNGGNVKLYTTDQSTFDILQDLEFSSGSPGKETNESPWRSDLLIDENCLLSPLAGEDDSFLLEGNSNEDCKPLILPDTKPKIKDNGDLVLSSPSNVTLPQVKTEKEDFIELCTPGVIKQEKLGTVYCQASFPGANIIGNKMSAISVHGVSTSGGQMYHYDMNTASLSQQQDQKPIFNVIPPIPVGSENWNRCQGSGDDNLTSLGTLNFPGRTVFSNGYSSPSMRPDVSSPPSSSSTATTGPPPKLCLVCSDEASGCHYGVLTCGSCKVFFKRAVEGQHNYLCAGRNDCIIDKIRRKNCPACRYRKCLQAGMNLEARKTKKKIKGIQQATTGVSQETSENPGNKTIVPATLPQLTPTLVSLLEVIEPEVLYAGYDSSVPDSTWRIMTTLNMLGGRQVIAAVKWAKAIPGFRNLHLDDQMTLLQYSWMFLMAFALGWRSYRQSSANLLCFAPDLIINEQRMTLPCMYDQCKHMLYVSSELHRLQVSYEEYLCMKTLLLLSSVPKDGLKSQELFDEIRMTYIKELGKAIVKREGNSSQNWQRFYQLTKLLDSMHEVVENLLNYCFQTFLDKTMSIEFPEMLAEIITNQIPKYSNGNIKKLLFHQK

[2] = test system: human breast cancer cells (T47D); settings: Endocrine Society 1994 Abstract No. 1744; cited from earlier work
[3] = target: T2, progesterone receptor (Homo sapiens, UniProt P06401); settings: as reported by DeLuca and coworkers; cited from earlier work
T2 sequence (P06401 1-933): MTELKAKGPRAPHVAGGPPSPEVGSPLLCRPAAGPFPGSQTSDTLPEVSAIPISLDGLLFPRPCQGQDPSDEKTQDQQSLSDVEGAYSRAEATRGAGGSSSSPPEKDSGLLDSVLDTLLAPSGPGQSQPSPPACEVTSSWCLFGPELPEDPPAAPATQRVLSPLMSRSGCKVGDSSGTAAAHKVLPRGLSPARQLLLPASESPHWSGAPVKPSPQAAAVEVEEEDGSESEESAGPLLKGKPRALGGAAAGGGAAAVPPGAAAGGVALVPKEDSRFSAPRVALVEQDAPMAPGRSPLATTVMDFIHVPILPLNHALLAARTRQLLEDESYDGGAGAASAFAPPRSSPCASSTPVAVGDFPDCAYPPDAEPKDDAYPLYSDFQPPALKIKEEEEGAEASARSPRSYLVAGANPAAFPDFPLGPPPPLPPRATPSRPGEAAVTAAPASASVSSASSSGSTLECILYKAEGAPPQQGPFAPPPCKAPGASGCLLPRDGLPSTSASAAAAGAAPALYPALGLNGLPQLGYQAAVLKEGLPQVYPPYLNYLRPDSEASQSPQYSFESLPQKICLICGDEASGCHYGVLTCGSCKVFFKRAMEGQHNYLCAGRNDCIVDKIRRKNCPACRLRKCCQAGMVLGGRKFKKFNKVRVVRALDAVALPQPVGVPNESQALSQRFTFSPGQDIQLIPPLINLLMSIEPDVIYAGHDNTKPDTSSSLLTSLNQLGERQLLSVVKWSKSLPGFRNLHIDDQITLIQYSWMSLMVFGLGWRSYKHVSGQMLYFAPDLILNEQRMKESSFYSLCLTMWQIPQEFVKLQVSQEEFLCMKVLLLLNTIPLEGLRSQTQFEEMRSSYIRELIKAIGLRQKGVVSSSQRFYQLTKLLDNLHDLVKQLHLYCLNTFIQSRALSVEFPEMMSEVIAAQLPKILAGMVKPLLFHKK

[4] = test system: progesterone activity; experiment: anti-progesterone activity (applicant's finding); settings: evidenced by antifertility activity, anti-progesterone assay and inhibition of growth of T47D and MCF-7 cell lines; no data given

| SMILES | binding to the glucocorticoid receptor [1] | suppression of in vitro growth of human breast cancer cells (T47D) [2] | ability to bind to the progesterone receptor [3] | antagonism of progesterone activity [4] |
| --- | --- | --- | --- | --- |
| C=C1CC[C@H](O)C/C1=C/C=C1\CCC[C@@]2(C)[C@@H](C(C)=O)CC[C@H]12 [20-oxopregnacalciferol] | not to bind | suppress in vitro growth | – | – |
| C=C1C(=CC=C2CCCC3(C)C(C(C)=O)CCC23)CC(O)CC1O (stereo not drawn) [1α-Hydroxy-20-oxopregna-calciferol, 1α,3β-Dihydroxy-20-oxo-9,10-secopregna-5(Z),7,10(19)-triene] | – | – | not to have such binding effect | anti-progestational activity |
